The text below walks through data of patent US6916793B2, “Selenium-containing pro-drugs for cancer therapy” (priority 1999, dated 2005).

Broadly, the IC50 is the point on the concentration scale where inhibition reaches its midpoint.

Like-named read-outs stand apart in the source and are kept apart here.

The subject of data set [1] is A549 cells. The data set is described as follows: Combined effect of SeMet with BCNU, cell survival. Type of data set: cell-based, human. The conditions noted are these: A549 transfected with rAd-MET, 20% FBS. As to the method: A549 cells that had been transfected with rAd-MET were cultured in RPMI with 20% FBS with and without 8 μM SeMet. In each case, duplicate samples were cultured without BCNU and in the presence of 300 μM BCNU. Cell survival was determined […]. With no treatment, 100% of the cells survived; in the presence of SeMet alone, 80% of the cells survived. In the absence of SeMet, but in the presence of BCNU, 55% cell survival was obtained; in the presence of 8 μM SeMet and 300 μM BCNU, less than 10% of the cells survived. Thus, SeMet dramatically enhances the effect of BCNU.

The subject of a further data set is OVCAR-8. The data set is described as follows: MTT assay, serial dilutions of SeMet on transduced cells. The following applies: for IC50: Homo sapiens. Type of data set: cell-based, human. As to the method: (§1) Cells (4×10^3) of various tumor lines were seeded onto 96-well plates. After 24 hours, serial dilutions of the methioninase expressing vector (rAd-MET) or a control vector containing no methioninase encoding nucleotide sequence (rAd) were added to the wells with and without 20 μM of selenomethionine (SeMet) (20 μM). After incubating the plates for three (3) days, the medium was replaced with 0.5 mg/ml MTT for two (2) hours and analyzed using a microplate reader (BioRad), in a standard MTT assay. Results were recorded as percentage of surviving cells.
(§2) The cell lines were also evaluated for their response to varying concentrations of SeMet. In these protocols, the cells were seeded as above into 96-well plates and infected with 4×10^5 pfu of rAd-MET or control rAd. After 24 hours, serial dilutions of SeMet were added and three (3) days later cytotoxicity was evaluated with the MTT assay as described in Example 2. The results are shown for OVCAR-8 cells in FIG. 6.
In general terms: Formazan colour is commonly taken as a measure of viable cells.

The next data set relates to A549. The data set is described as above. Type of data set: cell-based. The following applies: Homo sapiens. As for the experimental part: as §1, §2
In a further data set the test system is BxPC-3. The data set is described as above. Format: cell-based. The following applies: Homo sapiens. As to the method:
as §1, §2

Another data set deals with EKVX. Described as above. Format: cell-based. The conditions noted are these: Homo sapiens. As for the experimental part:
as §1, §2

The next data set deals with Hep-2. The data set is described as above. Format: cell-based. The following applies: Homo sapiens. As for the experimental part: as §1, §2
A further data set concerns MIA PaCa-2. The data set is described as above. Format: cell-based. The following applies: Homo sapiens. As to the method: as §1, §2
Data set [2] concerns A549 human lung cancer cells. The data set is described as follows: Combined variation of rAd-MET and SeMet, percentage of surviving cells. Type of data set: cell-based. As to the method:
The experiments described in Examples 2 and 3 were performed on A549 human lung cancer cells using varying concentrations of SeMet from 0-40 μM and of virus rAd-MET titer of 0-8×10^5 pfu using rAd as a control. Percentage of surviving cells was again used as an index of efficacy.

Data set [3] deals with A549 cells. The data set is described as follows: ROS generation, lucigenin-dependent chemiluminescence. Type of data set: cell-based, human. The following applies: for chemiluminescence relative to control: 30 minutes. As for the experimental part:
It is believed that selenium cytotoxicity is mediated by generation of reactive oxygen species (ROS). This can be measured by standard techniques which employ lucigenin-dependent chemiluminescence as described by Yan, L., et al., Biochem Pharmacol (1993) 45:429-437, cited above.
A549 cells were transduced with rAd-MET at MOI of 50, 24 hours before measurement. The cells (1×10^6) were incubated in 1 ml RPMI in the presence of SeMet with or without 10 units of superoxide dismutase (SOD) for 30 minutes. Lucigenin (50 μg) was added to the cell suspension just prior to measurement and integrated chemiluminescence was measured for 10 seconds, three times, using a TD21 luminometer (Turner Designs).

Data set [4] relates to A549 cells. The data set is described as follows: Combined effect of SeMet with doxorubicin, cell survival. Type of data set: cell-based, human. The conditions noted are these: A549 transfected with rAd-MET, 10% FBS. As to the method: In a similar experiment, A549 cells that had been transfected with rAd-MET were cultured in RPMI with 10% FBS in the presence and absence of 4 μM SeMet and with and without 0.4 μM doxorubicin. In the presence of doxorubicin alone, a 75% cell survival rate was obtained; when SeMet was present alone, a 60% cell survival rate was obtained.

A further data set has as its system human tumor cell lines. Nature of the data set: MTT assay, summary statements over all tumor cell lines. Type of data set: cell-based. The conditions noted are these: virtually all cell lines. As to the method:
as §1
The cell lines tested were human cancer cell lines OVCAR-8 (ovarian cancer), A549 and EKVX (lung cancer), Hep-2 (head and neck cancer), MIA PaCa-2 and BxPC-3 (pancreatic cancer), human rhabdomyosarcoma cell line A204 and human prostate cell line PC-3. The results with respect to the OVCAR-8 cell line and cell lines A204, and PC-3 are shown in FIGS. 2, 3 and 4 in X/Y graphs; FIG. 5 is a bar graph of the results with respect to the A549 cell line.
The cell lines were also evaluated for their response to varying concentrations of SeMet. In these protocols, the cells were seeded as above into 96-well plates and infected with 4×10^5 pfu of rAd-MET or control rAd. After 24 hours, serial dilutions of SeMet were added and three (3) days later cytotoxicity was evaluated with the MTT assay as described in Example 2. […]

Another data set concerns keratinocytes. The conditions noted are these: at the concentrations studied; cited from earlier work.

Turning to `O=NN(CCCl)C(=O)NCCCl` [BCNU, reference compound], the cell survival with A549 cells [1] (300 μM BCNU, no SeMet) amounted to 55%.

With `C[Se]CC[C@H](N)C(=O)O` [SeMet, selenomethionine], the IC50 was 224 µM in the data set on OVCAR-8 (OVCAR-8, read-out: SeMet IC50 (μM)); 170 µM in the data set with OVCAR-8 (OVCAR-8, read-out: SeMet IC50 (μM), OVCAR-8 transduced with Control-rAd 4×10^5 pfu); 0.59 µM with OVCAR-8 (OVCAR-8, read-out: SeMet IC50 (μM), OVCAR-8 transduced with rAd-MET 4×10^5 pfu); 486 µM in the data set on A549 (A549, read-out: SeMet IC50 (μM)); 327 µM with A549 (A549, read-out: SeMet IC50 (μM), A549 transduced with Control-rAd 4×10^5 pfu); 0.5 µM with A549 (A549, read-out: SeMet IC50 (μM), A549 transduced with rAd-MET 4×10^5 pfu). In addition, the IC50 in the data set on BxPC-3 (BXPC-3, read-out: SeMet IC50 (μM)) came out at 312 µM; in the data set on BxPC-3 (BXPC-3, read-out: SeMet IC50 (μM), BxPC-3 transduced with Control-rAd 4×10^5 pfu), 223 µM; in the data set with BxPC-3 (BXPC-3, read-out: SeMet IC50 (μM), BxPC-3 transduced with rAd-MET 4×10^5 pfu), 3.38 µM; in the data set with EKVX (read-out: SeMet IC50 (μM)) it was 1360 µM; in the data set on EKVX (read-out: SeMet IC50 (μM), EKVX transduced with Control-rAd 4×10^5 pfu), 686 µM; with EKVX (read-out: SeMet IC50 (μM), EKVX transduced with rAd-MET 4×10^5 pfu) it was 1.66 µM. Moreover, the IC50 in the data set with Hep-2 (HEp-2, read-out: SeMet IC50 (μM)) turned out to be 411 µM; in the data set with Hep-2 (HEp-2, read-out: SeMet IC50 (μM), Hep-2 transduced with Control-rAd 4×10^5 pfu), 387 µM; with Hep-2 (HEp-2, read-out: SeMet IC50 (μM), Hep-2 transduced with rAd-MET 4×10^5 pfu) it was 1.66 µM; with MIA PaCa-2 (MIA PaCa-2, read-out: SeMet IC50 (μM)), 422 µM; in the data set with MIA PaCa-2 (MIA PaCa-2, read-out: SeMet IC50 (μM), MIA PaCa-2 transduced with Control-rAd 4×10^5 pfu), 338 µM; in the data set on MIA PaCa-2 (MIA PaCa-2, read-out: SeMet IC50 (μM), MIA PaCa-2 transduced with rAd-MET 4×10^5 pfu) it was 3.86 µM. Moreover, the “lowering of IC50 for SeMet in the presence of rAd-MET as compared to control rAd” value in the data set with OVCAR-8 (OVCAR-8 cells, FIG. 6) is “lowered over a thousandfold”. In addition, the “toxicity of selenomethionine itself” value in data set [2] (A549, control vector, SeMet 20-40 μM, FIG. 7) is “slight toxicity”. Moreover, the cells survived in data set [2] (A549, rAd-MET 4×10^5, SeMet 2.5 μM) was 50%. Moreover, the cell survival entry is listed as “substantially no cells survived” in data set [2] (A549, rAd-MET 8×10^5 pfu, SeMet 5 μM or more) and 80% in the data set with A549 cells [1] (8 μM SeMet alone). Besides, the viability result in [2] (A549, rAd-MET 5,000 pfu, SeMet 20-40 μM, FIG. 8) is given as “drastically reduced viability”. Further, the “effect of superoxide dismutase on SeMet-dependent chemiluminescence” value with A549 cells [3] (10 units SOD, 160 μM and 40 μM SeMet) is recorded as “inhibited by SOD”. The “chemiluminescence relative to control” value in the data set with A549 cells [3] (A549 transduced with rAd-MET MOI 50, 40 μM SeMet) is given as 20 times; with A549 cells [3] (A549 transduced with rAd-MET MOI 50, 160 μM SeMet) it was “over 100 times”. Further, the cell survival rate in the data set with A549 cells [4] (4 μM SeMet alone) stood at 60%. Also, the “change in IC50 for SeMet in the presence of rAd-MET” value in the data set with human tumor cell lines was “dramatic decrease in IC50”. Moreover, the cytotoxicity in keratinocytes result with keratinocytes is “not cytotoxic”. In addition, the “induction of apoptosis in keratinocytes” value with keratinocytes is recorded as “did not induce cellular apoptosis”.

In the case of `COc1cccc2c1C(=O)c1c(O)c3c(c(O)c1C2=O)C[C@@](O)(C(=O)CO)C[C@@H]3O[C@H]1C[C@H](N)[C@H](O)[C@H](C)O1` [doxorubicin, reference compound], in the data set with A549 cells [4] (0.4 μM doxorubicin alone), the cell survival rate came to 75%.

With `O=[Se](O)O` [selenite], in the data set with keratinocytes, the cytotoxicity in keratinocytes entry is “cytotoxic” and the “induction of apoptosis in keratinocytes” value was “induced apoptosis”.

Consider `NCC[Se][Se]CCN` [selenocystamine], for which, in the data set on keratinocytes, the cytotoxicity in keratinocytes entry is given as “cytotoxic” and the “induction of apoptosis in keratinocytes” value is listed as “induced apoptosis”.

In the case of `N[C@@H](C[Se][Se]C[C@H](N)C(=O)O)C(=O)O` [selenocystine], in the data set with keratinocytes, the cytotoxicity in keratinocytes result was “cytotoxic” and the “induction of apoptosis in keratinocytes” value is given as “induced apoptosis”.
